{"source": "paper PMC6811539", "about": "“Minute-scale persistence of a GPCR conformation state triggered by non-cognate G protein interactions primes signaling” (Nature Communications, 2019)", "target": "T1, β2-AR-mCer (Homo sapiens, UniProt P07550)", "T1 construct": "expressed in transfected cells; host or cells: native membranes of transiently transfected HEK293T cells", "assay": "competition pull-down assay, displacement of PC-Qp (fragments) from β2-AR-mCer membranes", "format": "binding", "details": "PC-Qp 50 μM; thirty seconds after UV irradiation", "experimental": "Native membranes were prepared from cells expressing β2-mCer and were stored in sucrose-supplemented buffer A as described above (Membrane preparations). Membranes were sonicated (3× bursts, 15 s with 1 min pauses) and resuspended in ΔFRET buffer minus Ca^2+ to a concentration of 10 nM receptor based on fluorescence counts. bioQp (30 μM)/30 μM bioQp + 30 μM Qp/30 μM bioQp + 50 μM Qp, and 100 μM isoproterenol were added and mixed for 5 min. Samples were split into duplicates, one of which was not manipulated in any way to obtain the total receptor counts. To the other tube, 20 μl of 0.4 mg/ml streptavidin-coated magnetic beads were added, mixed, and precipitated using a Neodymium disc magnet N52 (20 × 40 mm). Supernatant was removed to a fresh micro-centrifuge tube to monitor fluorescence of receptors not bound to the beads. Percentage of receptors bound to the beads was calculated by subtracting the unbound from the total (duplicate). The experiment was repeated with UV exposure for 2 min, followed by the addition and pulldown using the magnetic beads."}
{"substance": "DTENIRFVFAAVKDTILQLNLKE(Anp)NLV [PC-Qp, photocleavable Qp, Y356 replaced by Anp]", "values": [{"measurement": "competition with bioQp for receptor binding", "value": "no longer competes with bioQp for interaction with the receptor"}]}
